Legend:
[1] = system: MMP1 expression from activated SFs (RASF); assay: MMP assay: MMP1 expression (ELISA) by TNF-α-triggered RASFs; format: cell-based; conditions: RASF triggered with TNFα, MMP1 ELISA after 48 hrs, semi-quantitative score
In short: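 Rheumatoid arthritis synovial fibroblasts (passage 10–12) were preincubated 90 min with compound in M199 with 1% FBS, then stimulated with TNF-α (10 ng/mL final) or complex trigger (12.5% final) for 48 h. MMP1 in the supernatant was quantified by sandwich luminescence ELISA. Controls were stimulated cells with 0.2% DMSO vehicle and unstimulated cells.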

TAK1-TAB1 fusion protein = target: T1, TAK1-TAB1 fusion protein (Homo sapiens, UniProt O43318); assay: In vitro TAK1 kinase assay (33P-ATP, casein substrate); format: biochemical; conditions: semi-quantitative score, at least two independent experiments
T1 construct: purchased Upstate 14-600
T1 sequence (O43318 with tags, fused parts or gaps limits assumed): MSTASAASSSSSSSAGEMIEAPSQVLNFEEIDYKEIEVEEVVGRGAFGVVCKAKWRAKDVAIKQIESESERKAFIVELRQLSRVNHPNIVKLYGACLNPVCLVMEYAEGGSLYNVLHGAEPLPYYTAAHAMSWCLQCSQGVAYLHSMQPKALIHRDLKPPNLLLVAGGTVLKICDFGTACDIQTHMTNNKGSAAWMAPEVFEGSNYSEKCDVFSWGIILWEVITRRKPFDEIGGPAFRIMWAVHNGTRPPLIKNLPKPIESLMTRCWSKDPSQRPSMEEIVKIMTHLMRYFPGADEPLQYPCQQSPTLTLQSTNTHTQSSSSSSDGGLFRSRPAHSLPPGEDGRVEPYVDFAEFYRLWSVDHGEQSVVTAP
In short: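 Radiometric assay with active TAK1-TAB1 fusion protein (0.5 mU), 0.1 mg/mL casein, ATP at 5 µM plus [33P]-γ-ATP, in 10 mM MOPS pH 7.0, 1 mM EDTA. Reactions ran 90 min at 30 °C, were stopped with phosphoric acid and filter-counted; percent inhibition from ≥2 experiments gave semi-quantitative potency scores.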

Row | SMILES | EC50 [1] | IC50 (TAK1-TAB1 fusion protein)
1 | NC(=O)c1ccc(-c2ccc(Nc3ccc(N4CCOCC4)c(F)c3)c3nccn23)cc1Cl [Compound 73] | 0.101 to 1 µM | > 3 µM
2 | CC(C)N1CCN(c2ccc(Nc3ccc(-c4cc[nH]c(=O)c4)n4ccnc34)cc2)CC1 [Compound 74] | 0.101 to 1 µM | < 0.1 µM
3 | CC(C)N1CCN(c2ccc(Nc3ccc(-c4cccc5[nH]ccc45)n4ccnc34)cc2)CC1 [Compound 75] | > 3 µM | 0.101 to 1 µM
4 | CCCN1CCN(c2ccc(Nc3ccc(-c4cc[nH]c(=O)c4)n4ccnc34)cc2)CC1 [Compound 84] | 0.101 to 1 µM | 0.101 to 1 µM
5 | CC(C)CCN1CCN(c2ccc(Nc3ccc(-c4cc[nH]c(=O)c4)n4ccnc34)cc2)CC1 [Compound 86] | 1 to 3 µM | 0.101 to 1 µM
6 | CCC(CC)N1CCN(c2ccc(Nc3ccc(-c4cc[nH]c(=O)c4)n4ccnc34)cc2)CC1 [Compound 87] | 0.101 to 1 µM | 0.101 to 1 µM
7 | CCC(CC)N1CCN(c2ccc(Nc3ccc(-c4cn[nH]c4)n4ccnc34)cc2)CC1 [Compound 89] | > 3 µM | 0.101 to 1 µM
8 | CCN1CCN(c2ccc(Nc3ccc(-c4cc[nH]c(=O)c4)n4ccnc34)cc2)CC1 [Compound 91] | 0.101 to 1 µM | 0.101 to 1 µM
9 | Cc1n[nH]c(C)c1-c1ccc(Nc2ccc(N3CCOCC3)cc2)c2nccn12 [Compound 92] | > 3 µM | > 3 µM
10 | CC(C)N1CCN(c2ccc(Nc3ccc(-c4cccc(O)c4)n4ccnc34)cc2)CC1 [Compound 94] | > 3 µM | > 3 µM
11 | COc1cc(-c2ccc(Nc3ccc(N4CCN(C(C)C)CC4)cc3)c3nccn23)ccc1O [Compound 95] | > 3 µM | 0.101 to 1 µM
12 | CC(C)N1CCC(c2ccc(Nc3ccc(-c4cc[nH]c(=O)c4)n4ccnc34)cc2)CC1 [Compound 96] | 1 to 3 µM | 0.101 to 1 µM
13 | CC(C)N1CCN(c2ccc(Nc3ccc(-c4cc[nH]c(=O)c4)n4ccnc34)cc2C(F)(F)F)CC1 [Compound 106, 4-{8-[4-(4-Isopropyl-piperazin-1-yl)-3-trifluoromethyl-phenylamino]-imidazo[1,2-a]pyridin-5-yl}-1H-pyridin-2-one] | 0.101 to 1 µM | > 3 µM
14 | O=c1cc(-c2ccc(Nc3ccc(C4CCN(CC(F)F)CC4)cc3)c3nccn23)cc[nH]1 [Compound 107, 4-(8-{4-[1-(2,2-Difluoro-ethyl)-piperidin-4-yl]-phenylamino)-imidazo[1,2-a]pyridin-5-yl)-1H-pyridin-2-one] | 1 to 3 µM | 1 to 3 µM
15 | O=c1cc(-c2ccc(Nc3ccc(C4CCN(CCF)CC4)cc3)c3nccn23)cc[nH]1 [Compound 108, 4-(8-{4-[1-(2-Fluoro-ethyl)-piperidin-4-yl]-phenylamino}-imidazo[1,2-a]pyridin-5-yl)-1H-pyridin-2-one] | 1 to 3 µM | 0.101 to 1 µM
16 | FC(F)CN1CCN(c2ccc(Nc3ccc(-c4cn[nH]c4)n4ccnc34)cc2)CC1 [Compound 109, {4-[4-(2,2-Difluoro-ethyl)-piperazin-1-yl]-phenyl}-[5-(1H-pyrazol-4-yl)-imidazo[1,2-a]pyridin-8-yl]-amine] | 0.101 to 1 µM | 1 to 3 µM
17 | c1cn2c(-c3cn[nH]c3)ccc(Nc3ccc(N4CCSCC4)cc3)c2n1 [Compound 111, [5-(1H-Pyrazol-4-yl)-imidazo[1,2-a]pyridin-8-yl]-(4-thiomorpholin-4-yl-phenyl)-amine] | 0.101 to 1 µM | 1 to 3 µM
18 | CC1CN(c2ccc(Nc3ccc(-c4cc[nH]c(=O)c4)n4ccnc34)cc2)CC(C)N1 (stereo not drawn) [Compound 124, 4-{8-[4-(3,5-Dimethyl-piperazin-1-yl)-phenylamino]-imidazo[1,2-a]pyridin-5-yl}-1H-pyridin-2-one] | 1 to 3 µM | 0.101 to 1 µM

Second part, the molecule after the results:

Row | EC50 [1] | IC50 (TAK1-TAB1 fusion protein) | SMILES
19 | 0.101 to 1 µM | 0.101 to 1 µM | CCCN1CCN(c2ccc(Nc3ccc(-c4ccc(C(N)=O)cc4)n4ccnc34)cc2)CC1 [Compound 76]
20 | 1 to 3 µM | 0.101 to 1 µM | NC(=O)c1ccc(-c2ccc(Nc3ccc(N4CCN(C5CCCCC5)CC4)cc3)c3nccn23)cc1 [Compound 77]
21 | > 3 µM | 0.101 to 1 µM | NC(=O)c1ccc(-c2ccc(Nc3ccc(N4CCN(C5CCC5)CC4)cc3)c3nccn23)cc1 [Compound 78]
22 | > 3 µM | 0.101 to 1 µM | CC(C)CCN1CCN(c2ccc(Nc3ccc(-c4ccc(C(N)=O)cc4)n4ccnc34)cc2)CC1 [Compound 79]
23 | > 3 µM | 0.101 to 1 µM | CCC(CC)N1CCN(c2ccc(Nc3ccc(-c4ccc(C(N)=O)cc4)n4ccnc34)cc2)CC1 [Compound 80]
24 | 1 to 3 µM | 0.101 to 1 µM | CCN1CCN(c2ccc(Nc3ccc(-c4ccc(C(N)=O)cc4)n4ccnc34)cc2)CC1 [Compound 81]
25 | > 3 µM | 0.101 to 1 µM | c1cn2c(-c3cn[nH]c3)ccc(Nc3ccc(N4CCN(C5CCC5)CC4)cc3)c2n1 [Compound 82]
26 | > 3 µM | 1 to 3 µM | NC(=O)c1ccc(-c2ccc(Nc3ccc(N4CCN(C5CC5)CC4)cc3)c3nccn23)cc1 [Compound 83]
27 | 0.101 to 1 µM | 0.101 to 1 µM | O=c1cc(-c2ccc(Nc3ccc(N4CCN(C5CCC5)CC4)cc3)c3nccn23)cc[nH]1 [Compound 85]
28 | 1 to 3 µM | 1 to 3 µM | O=c1cc(-c2ccc(Nc3ccc(N4CCN(C5CC5)CC4)cc3)c3nccn23)cc[nH]1 [Compound 88]
29 | 0.101 to 1 µM | 0.101 to 1 µM | O=c1cc(-c2ccc(Nc3ccc(N4CCN(C5CCCCC5)CC4)cc3)c3nccn23)cc[nH]1 [Compound 90]
30 | 0.101 to 1 µM | 0.101 to 1 µM | O=c1cc(-c2ccc(Nc3ccc(N4CCC(N5CCCCC5)CC4)cc3)c3nccn23)cc[nH]1 [Compound 120, 4-[8-(4-[1,4′]Bipiperidinyl-1′-yl-phenylamino)-imidazo[1,2a]pyridi-5-yl]-1H-pyridin-2-one]

— patent US20120010206A1, “IMIDAZOLOPYRIDINE COMPOUNDS USEFUL FOR THE TREATMENT OF DEGENERATIVE AND INFLAMMATORY DISEASES” (priority 2006, published 2012)
